Results taken from patent publication US20090076006A1, “HSP90 INHIBITORS CONTAINING A ZINC BINDING MOIETY” (priority 2007, published 2009).

Tests used:
[1] = test system: HDAC (HeLa nuclear extract); experiment: HDAC fluorimetric assay (inhibition of HDAC enzymatic activity); type: biochemical; details: HDAC fluorimetric assay kit
Experimental: (c) An In Vitro Assay which Determines the Ability of a Test Compound to Inhibit HDAC Enzymatic Activity.
HDAC inhibitors were screened using an HDAC fluorimetric assay kit (AK-500, Biomol, Plymouth Meeting, Pa.). Test compounds were dissolved in dimethylsulphoxide (DMSO) to give a 20 mM working stock concentration. Fluorescence was measured on a WALLAC Victor 2 plate reader and reported as relative fluorescence units (RFU). Data were plotted using GraphPad Prism (v4.0a) and IC50's calculated using a sigmoidal dose response curve fitting algorithm. Each assay was setup as follows: Defrosted all kit components and kept on ice until use. Diluted HeLa nuclear extract 1:29 in Assay Buffer (50 mM Tris/Cl, pH 8.0, 137 mM NaCl, 2.7 mM KCl, 1 mM MgCl2). Prepared dilutions of Trichostatin A (TSA, positive control) and tested compounds in assay buffer (5× of final concentration). Diluted Fluor de Lys™ Substrate in assay buffer to 100 uM (50 fold=2× final). Diluted Fluor de Lys™ developer concentrate 20-fold (e.g. 50 μl plus 950 μl Assay Buffer) in cold assay buffer. Second, diluted the 0.2 mM Trichostatin A 100-fold in the 1× Developer (e.g. 10 μl in 1 ml; final Trichostatin A concentration in the 1× Developer=2 μM; final concentration after addition to HDAC/Substrate reaction=1 μM). Added Assay buffer, diluted trichostatin A or test inhibitor to appropriate wells of the microtiter plate. Added diluted HeLa extract or other HDAC sample to all wells except for negative controls. Allowed diluted Fluor de Lys™ Substrate and the samples in the microtiter plate to equilibrate to assay temperature (e.g. 25 or 37° C. Initiated HDAC reactions by adding diluted substrate (25 μl) to each well and mixing thoroughly. Allowed HDAC reactions to proceed for 1 hour and then stopped them by addition of Fluor de Lys™ Developer (50 μl). Incubated plate at room temperature (25° C.) for 10-15 min. Read samples in a microtiter-plate reading fluorimeter capable of excitation at a wavelength in the range 350-380 nm and detection of emitted light in the range 440-460 nm.

HSP90 = molecular target: T1, HSP90 (Homo sapiens, UniProt P07900); experiment: HSP90 assay (chaperone luciferase refolding / competition binding fluorescence polarization); details: Table B does not say which of the two described
T1 construct: purchased Assay Design SPP-776F
Experimental: (a) An In Vitro Assay which Determines the Ability of a Test Compound to Inhibit Hsp90 Chaperone Activity.
The Hsp90 chaperone assay was performed to measure the ability of HSP90 protein to refold the heat-denatured luciferase protein. HSP90 was first incubated with different concentrations of test compounds in denaturation buffer (25 mM Tris, pH7.5, 8 mM MgSO4, 0.01% bovine gamma globulin and 10% glycerol) at room temperature for 30 min. Luciferase protein was added to denaturation mix and incubated at 50° C. for 8 min. The final concentration of HSP90 and luciferase in denaturation mixture were 0.375 μM and 0.125 μM respectively. A 5 μl sample of the denatured mix was diluted into 25 μl of renaturation buffer (25 mM Tris, pH7.5, 8 mM MgSO4, 0.01% bovine gamma globulin and 10% glycerol, 0.5 mM ATP, 2 mM DTT, 5 mM KCl, 0.3 μM HSP70 and 0.15 μM HSP40). The renaturation reaction was incubated at room temperature for 150 min, followed by dilution of 10 μl of the renatured sample into 90 μl of luciferin reagent (Luclite, PerkinElmer Life Science). The mixture was incubated at dark for 5 min before reading the luminescence signal on a TopCount plate reader (PerkinElmer Life Science).
(b) HSP90 Competition Binding (Fluorescence Polarization) Assay.
A fluorescein isothiocyanate (FITC) labeled GM was purchase from InvivoGen (ant-fgl-1). The interaction between HSP90 and labeled GM forms the basis for the fluorescence polarization assay. A free and fast-tumbling FITC labeled GM emits random light with respect to the plane of polarization plane of excited light, resulting in a lower polarization degree (mP) value. When GM is bound to HSP90, the complex tumble slower and the emitted light is polarized, resulting in a higher mP value. This competition binding assay was performed in 96-well plate and with each assay contained 10 and 50 nM of labeled GM and purified HSP90 protein (Assay Design, SPP-776F) respectively. The assay buffer contained 20 mM HEPES (pH 7.3), 50 mM KCl, 1 mM DTT, 50 mM MgCl2, 20 mM Na2MoO4, 0.01% NP40 with 0.1 mg/ml bovine gamma-globulin. Compounds are diluted in DMSO and added to the final assay before labeled GM with concentration range from 20 uM to 2 nM. mP value was determined by BioTek Synergy II with background subtraction after 24 hours of incubation at 4° C.

With `CCNC(=O)c1noc(-c2cc(Cl)c(O)cc2O)c1-c1ccc(OCCCC(=O)NO)cc1` [Compound 1, 5-(5-chloro-2,4-dihydroxyphenyl)-N-ethyl-4-(4-(4-(hydroxyamino)-4-oxobutoxy)phenyl)isoxazole-3-carboxamide] the IC50 [1] was 100 to 1000 nM and the IC50 (HSP90) was ≤ 100 nM.

In the case of `CCNC(=O)c1noc(-c2cc(Cl)c(O)cc2O)c1-c1ccc(OCCCCC(=O)NO)cc1` [Compound 2, 5-(5-Chloro-2,4-dihydroxyphenyl)-N-ethyl-4-(4-(5-(hydroxyamino)-5-oxopentyloxy)phenyl)isoxazole-3-carboxamide], the IC50 [1] is reported as 1000 to 10000 nM and the IC50 (HSP90) is reported as ≤ 100 nM.

For `CCNC(=O)c1noc(-c2cc(Cl)c(O)cc2O)c1-c1ccc(OCCCCCC(=O)NO)cc1` [Compound 3, 5-(5-Chloro-2,4-dihydroxyphenyl)-N-ethyl-4-(4-(6-(hydroxyamino)-6-oxohexyloxy)phenyl)isoxazole-3-carboxamide], the IC50 [1] was 100 to 1000 nM and the IC50 (HSP90) was ≤ 100 nM.

With `CCNC(=O)c1noc(-c2cc(Cl)c(O)cc2O)c1-c1ccc(OCCCCCCC(=O)NO)cc1` [Compound 4, 5-(5-chloro-2,4-dihydroxyphenyl)-N-ethyl-4-(4-(7-(hydroxylamino)-7-oxoheptyloxy)phenyl)isoxazole-3-carboxamide] the IC50 [1] was 100 to 1000 nM and the IC50 (HSP90) was ≤ 100 nM.

For `COc1ccc(-c2c(C(=O)NCCC(=O)NO)noc2-c2cc(Cl)c(O)cc2O)cc1` [Compound 5, 5-(5-chloro-2,4-dihydroxyphenyl)-N-(3-(hydroxyl-amino)-3-oxopropyl)-4-(4-methoxyphenyl)isoxazole-3-carboxamide], the IC50 [1] was 1000 to 10000 nM and the IC50 (HSP90) was ≤ 100 nM.

In the case of `COc1ccc(-c2c(C(=O)NCCCC(=O)NO)noc2-c2cc(Cl)c(O)cc2O)cc1` [Compound 6, 5-(5-chloro-2,4-dihydroxyphenyl)-N-(4-(hydroxyamino)-4-oxobutyl)-4-(4-methoxyphenyl)isoxazole-3-carboxamide], the IC50 [1] is reported as 1000 to 10000 nM and the IC50 (HSP90) is reported as ≤ 100 nM.

For `COc1ccc(-c2c(C(=O)NCCCCCC(=O)NO)noc2-c2cc(Cl)c(O)cc2O)cc1` [Compound 8, 5-(5-chloro-2,4-dihydroxyphenyl)-N-(6-(hydroxylamino)-6-oxohexyl)-4-(4-methoxyphenyl)isoxazole-3-carboxamide], the IC50 [1] was 100 to 1000 nM and the IC50 (HSP90) was ≤ 100 nM.

With `COc1ccc(-c2c(C(=O)NCCCCCCC(=O)NO)noc2-c2cc(Cl)c(O)cc2O)cc1` [Compound 9, 5-(5-chloro-2,4-dihydroxyphenyl)-N-(7-(hydroxylamino)-7-oxoheptyl)-4-(4-methoxyphenyl)isoxazole-3-carboxamide] the IC50 [1] was ≤ 100 nM and the IC50 (HSP90) was ≤ 100 nM.

For `COc1ccc(-c2c(C(=O)NCCCCCCCC(=O)NO)noc2-c2cc(Cl)c(O)cc2O)cc1` [Compound 10, 5-(5-chloro-2,4-dihydroxyphenyl)-N-(8-(hydroxylamino)-8-oxooctyl)-4-(4-methoxyphenyl)isoxazole-3-carboxamide], the IC50 [1] was ≤ 100 nM and the IC50 (HSP90) was ≤ 100 nM.

With `COc1ccc(-c2c(C(=O)N3CCN(c4ncc(C(=O)NO)cn4)CC3)noc2-c2cc(Cl)c(O)cc2O)cc1` [Compound 11, 2-(4-(5-(5-chloro-2,4-dihydroxyphenyl)-4-(4-methoxyphenyl)isoxazole-3-carbonyl)piperazin-1-yl)-N-hydroxypyrimidine-5-carboxamide] the IC50 [1] was ≤ 100 nM, the IC50 (HSP90) was 100 to 1000 nM and the melting point was 186 to 190 °C.

With `COc1ccc(-c2c(C(=O)NCC3CCN(c4ncc(C(=O)NO)cn4)CC3)noc2-c2cc(Cl)c(O)cc2O)cc1` [Compound 13, 5-(5-Chloro-2,4-dihydroxyphenyl)-N-((1-(5-(hydroxycarbamoyl)pyrimidin-2-yl)piperidin-4-yl)methyl)-4-(4-methoxyphenyl)isoxazole-3-carboxamide] the IC50 [1] was ≤ 100 nM, the IC50 (HSP90) was 100 to 1000 nM and the melting point was 148 to 151 °C.

For `CCNC(=O)c1noc(-c2cc(C(C)C)c(O)cc2O)c1-c1ccc(CNCCC(=O)NO)cc1` [Compound 15, 5-(2,4-dihydroxy-5-isopropylphenyl)-N-ethyl-4-(4-((3-(hydroxyamino)-3-oxopro-pylamino)methyl)phenyl)isoxazole-3-carboxamide], the IC50 [1] was 1000 to 10000 nM, the IC50 (HSP90) was ≤ 100 nM and the melting point was 146 to 148 °C.

For `CCNC(=O)c1noc(-c2cc(C(C)C)c(O)cc2O)c1-c1ccc(CN(C)CCC(=O)NO)cc1` [Compound 16, 5-(2,4-dihydroxy-5-isopropylphenyl)-N-ethyl-4-(4-(((3-(hydroxyamino)-3-oxopropyl)(methyl)amino)methyl)phenyl)isoxazole-3-carboxamide], the IC50 [1] was ≥ 10000 nM, the IC50 (HSP90) was ≤ 100 nM and the melting point was 120 to 122 °C.

In the case of `CCNC(=O)c1noc(-c2cc(C(C)C)c(O)cc2O)c1-c1ccc(CN(C)CCCC(=O)NO)cc1` [Compound 18, 5-(2,4-dihydroxy-5-isopropylphenyl)-N-ethyl-4-(4-(((4-(hydroxyamino)-4-oxobutyl)(methyl)amino)methyl)phenyl)isoxazole-3-carboxamide], the IC50 [1] is reported as ≥ 10000 nM, the IC50 (HSP90) is reported as ≤ 100 nM and the melting point is reported as 132 to 134 °C.

With `CCNC(=O)c1noc(-c2cc(C(C)C)c(O)cc2O)c1-c1ccc(CNCCCCCC(=O)NO)cc1` [Compound 21, 5-(2,4-Dihydroxy-5-isopropylphenyl)-N-ethyl-4-(4-((6-(hydroxyamino)-6-oxohexylamino)methyl)phenyl)isoxazole-3-carboxamide] the IC50 [1] was 1000 to 10000 nM, the IC50 (HSP90) was ≤ 100 nM and the melting point was 134 to 135 °C.

For `CCNC(=O)c1noc(-c2cc(C(C)C)c(O)cc2O)c1-c1ccc(CN(C)CCCCCC(=O)NO)cc1` [Compound 22, 5-(2,4-Dihydroxy-5-isopropylphenyl)-N-ethyl-4-(4-(((6-(hydroxyamino)-6-oxohexyl)(methyl)amino)methyl)phenyl)isoxazole-3-carboxamide], the IC50 [1] was 1000 to 10000 nM, the IC50 (HSP90) was ≤ 100 nM and the melting point was 113 to 115 °C.

With `CCNC(=O)c1noc(-c2cc(C(C)C)c(O)cc2O)c1-c1ccc(CNCCCCCCC(=O)NO)cc1` [Compound 23, 5-(2,4-dihydroxy-5-isopropylphenyl)-N-ethyl-4-(4-((7-(hydroxyamino)-7-oxoheptylamino)methyl)phenyl)isoxazole-3-carboxamide] the IC50 [1] was 100 to 1000 nM, the IC50 (HSP90) was ≤ 100 nM and the melting point was 126 to 128 °C.

In the case of `CCNC(=O)c1noc(-c2cc(C(C)C)c(O)cc2O)c1-c1ccc(CN(C)CCCCCCC(=O)NO)cc1` [Compound 24, 5-(2,4-Dihydroxy-5-isopropylphenyl)-N-ethyl-4-(4-(((7-(hydroxyamino)-7-oxoheptyl)(methyl)amino)methyl)phenyl)isoxazole-3-carboxamide], the IC50 [1] is reported as 100 to 1000 nM, the IC50 (HSP90) is reported as ≤ 100 nM and the melting point is reported as 118 to 119 °C.

In the case of `CC(C)c1cc(-c2onc(C(=O)NCCCC(=O)NO)c2-c2ccc(CN3CCOCC3)cc2)c(O)cc1O` [Compound 25, 5-(2,4-Dihydroxy-5-isopropylphenyl)-N-(4-(hydroxyamino)-4-oxobutyl)-4-(4-(morpholinomethyl)phenyl)isoxazole-3-carboxamide], the IC50 (HSP90) is reported as ≤ 100 nM and the melting point is reported as 129 to 130 °C.
